Measurements taken from patent US20030236218A1, “Aryl phosphate derivatives of d4T with selective activity against adenovirus and HIV” (priority 2002, published 2003).
Like-named read-outs stand apart in the source and are kept apart here.

Columns and labels:
[1] = cats; twice daily hard gelatin capsules 25 mg/kg -100 mg/kg; cumulative dose levels as high as 8.4 g/kg; cited from earlier work
[2] = Stability in plasma in the presence of selective esterase inhibitors; conditions: 250 μM
HSV Type II strain G = test: HSV-2 plaque formation assay in VERO cells; type: cell-based, herpes simplex virus Type II; conditions: Human alphaherpesvirus 2, HSV-2, Strain G
From the text: (§1) Virus stocks. The HIV-1 strain used in this study was HTLV-IIIB (Uckun et al., 1998 Antimicro. Agents and Chemother., 42:383-388). The non-HIV viruses included in the present study were the gancyclovir-sensitive cytomegalovirus (CMV) strain AD169 (ATCC VR-538); acyclovir-sensitive herpes simplex virus (HSV) Type I strain HF (ATCC VR-260); acyclovir-sensitive HSV Type II strain G (ATCC VR-734); adenovirus strain Type 5, strain adenoid 75 (ATCC VR-5); enterovirus strain, ECHO 30, strain Bastianni (ATCC VR-322); and respiratory syncytial virus (RSV), strain Long (ATCC VR-26).
(§2) Plaque formation assays. Plaque assays were used to examine the activity of the compounds against non-HIV viruses. The skin fibroblast cell line SF (ATCC CRL-2097) was used as a target for AD169, Adenovirus Type 5. […] cell line (ATCC CCL-81) was used as a target for HSV HF and G. The HEP-2 cell line (ATCC CCL-23) was used as a target for the RSV strain Long. These cell lines were cultured at 1×10^5 cells/well in 24-well (all but ECHO 30-infected SF) or 6-well (ECHO 30-infected SF) tissue culture plates with 0.9% methylcellulose or 0.4% SeaPlaque agarose semisolid support. […] Percent inhibition of plaque formation was calculated by comparing the plaque numbers from the test substance-treated infected cells with the plaque numbers from untreated infected cells (i.e., virus controls). The IC50 values were determined using the Statview statistics program (SAS Institute, Inc., Cary, N.C.).
(§3) Statistical analysis. […] An IC50 value was calculated from each set of triplicate wells using nonlinear regression modeling of the exponential form of the linearized equation (Statview, SAS Institute, Inc., Cary, N.C.). […]
(§4) The skin fibroblast cell line SF (ATCC CRL-2097) was used as a target for AD169, Adenovirus Type 5, and ECHO 30; the VERO cell line (ATCC CCL-81) was used as a target for HF and G; and the HEP-2 cell line (ATCC CCL-23) was used as target for the RSV strain Long. Results are expressed as the average IC50 values in μM. […]

[3] = dogs; twice daily hard gelatin capsules 25 mg/kg -100 mg/kg; cumulative dose levels as high as 8.4 g/kg; cited from earlier work
[4] = Stability in simulated gastric fluid; type: in vitro ADME; conditions: 100 μM, 37° C., 8 hours, listed as d4T-5′-[p-bromophenyl methoxyalaninyl phosphate]
Experimental: The spiked fluids were then placed in a 37° C. water bath. At a predetermined time, 100 μI aliquots of the spiked gastric or intestinal fluid were extracted by adding 400 μl of acetone as discussed above.

skin fibroblasts = test: Cytotoxicity in skin fibroblasts (plaque assay); type: cell-based; conditions: ADV plaque formation assay
Experimental: as §2, with “support. Minimum Essential Medium (MEM) with Earle's salts (Gibco), L-glutamine, non-essential amino acids, 2% heat-inactivated fetal bovine serum, 1% penicillin/streptomycin, and 0.05% gentamicin served as the culture medium. The incubation times were 3 days for HF, G, ECHO 30, and Long; and 7 days for AD169 and Adenovirus Type 5.” for “support.”

[5] = system: cytomegalovirus (CMV) strain AD169; test: CMV plaque formation assay in SF cells; type: cell-based; conditions: Human betaherpesvirus 5
From the text: as §1, §2, §3, §4

[6] = Stability in murine liver homogenates; type: in vitro ADME, Balb/c mice; conditions: 100 μM; Balb/c mouse liver homogenate
Experimental: At a predetermined time, an aliquot (100 μl) of spiked liver homogenate was extracted by adding 400 μl of acetone to induce precipitation of proteins, as described above.

[7] = rats, cited from earlier work
[8] = Pharmacokinetic studies in mice, intravenous administration; type: in vivo, Balb/c mice; conditions: for AUC: read-out: AUC (converted); for Vd: read-out: Vss; for Tmax: read-out: tmax (converted)
Experimental: Female Balb/c mice (6-8 weeks old) from Taconic (Germantown, N.Y.) were housed in a controlled environment (12-hours of light/12-hours of dark, 22±1° C., 60±10% relative humidity), which is fully accredited by the USDA. All rodents were housed in microisolator cages (Lab Products, Inc., NJ) containing autoclaved bedding. The mice were allowed free access to autoclaved pellet food and tap water throughout the study.
Blood samples (˜500 μL) were obtained from the ocular venous plexus by retro-orbital venipuncture at 0, 2, 5, 10, 15, 30, 45, 60, 120, 240 and 360 minutes after intravenous injection.
All collected blood samples were heparinized and centrifuged at 7000×g for 5 minutes to separate the plasma fraction from the whole blood. The plasma samples were then processed immediately using the extraction procedure described above.
Pharmacokinetic modeling and parameter calculations were carried out using the WinNonlin Professional Version 3.0 (Pharsight, Inc., Mountain, Calif.) pharmacokinetics software (Chen et al., Pharm. Res., 16, 1003 (1999); Chen et al., Pharm. Res., 16, 117 (1999); Chen et al., J. Clin. Pharmacol., 39, 1248 (1999); Uckun et al., Clin. Cancer Res., 5, 2954 (1999); and Uckun et al., J. Pharmacol. Exp. Ther., 291, 1301 (1999)). An appropriate model was chosen on the basis of the lowest sum of weighted squared residuals, the lowest Schwartz Criterion (SC), the lowest Akaike's Information Criterion (AIC) value, the lowest standard errors of the fitted parameters, and the dispersion of the residuals. The elimination half-life was estimated by linear regression analysis of the terminal phase of the plasma concentration-time profile. The area under the concentration-time curve (AUC) was calculated according to the linear trapezoidal rule between the first sampling time (0 hours) and the last sampling time plus C/k, where C is the concentration of the last sampling and k is the elimination rate constant. The systemic clearance (CL) was determined by dividing the dose by the AUC. The metabolic clearance of the parent drug, the formation clearance of the metabolite, the clearance elimination of the metabolite, and the distribution clearance of the metabolite were estimated by simultaneous fitting of the concentration of parent drug and metabolites as a function of time curve to pharmacokinetic models (see FIGS. 7A & 8A) specified as a system of differential equations (Gabrielsson & Weiner, Phamacokinetic/Phamacodynamic Data Analysis: Concepts and Applications, Swedish Pharmaceutical Press (1997)).

[9] = after i.v. compound 113, model fit, C.V. of modeling in parentheses
[10] = female, Balb/c, mouse, in vivo, iv, 100 mg/kg, plasma analyte = label, after i.v. 100 mg/kg compound 113, estimate from composite curve of pooled data
[11] = female, Balb/c, mouse, in vivo, iv, 100 mg/kg, plasma analyte = label, after i.v. 100 mg/kg compound 113, mean ± S.E.M
[12] = female, Balb/c, mouse, in vivo, iv
[13] = female, Balb/c, mouse, in vivo, iv, 40 mg/kg, after i.v. 40 mg/kg d4T, estimate from composite curve of pooled data
[14] = female, Balb/c, mouse, in vivo, iv, 40 mg/kg, after i.v. 40 mg/kg d4T, mean ± S.E.M
[15] = female, Balb/c, mouse, in vivo, iv, 75 mg/kg, plasma analyte = label, after i.v. 75 mg/kg Ala-d4T-MP, estimate from composite curve of pooled data
[16] = female, Balb/c, mouse, in vivo, iv, 75 mg/kg, plasma analyte = label, after i.v. 75 mg/kg Ala-d4T-MP, mean ± S.E.M

COC(=O)C(C)NP(=O)(OC[C@@H]1C=C[C@H](n2cc(C)c(=O)[nH]c2=O)O1)Oc1ccc(Br)cc1 (stereo partly drawn) [Compound 113, 5′-[4-Bromophenyl methoxylaninylphosphate]-2′, 3′-didehydro-3′-deoxy thymidine]
tolerability of four-week treatment course [1]: very well tolerated
mean percent hydrolysis in plasma ([2]; EDTA (1 mM), arylesterase, 5 min): 99%
mean percent hydrolysis in plasma ([2]; EDTA (1 mM), arylesterase, 10 min): 100%
mean percent hydrolysis in plasma ([2]; EDTA (1 mM), arylesterase, 15 min): 100%
mean percent hydrolysis in plasma ([2]; EDTA (1 mM), arylesterase, 30 min): 100%
mean percent hydrolysis in plasma ([2]; EDTA (1 mM), arylesterase, 60 min): 100%
mean percent hydrolysis in plasma ([2]; EDTA (1 mM), arylesterase, 120 min): 100%
mean percent hydrolysis in plasma ([2]; No inhibitor, 5 min): 95%
mean percent hydrolysis in plasma ([2]; No inhibitor, 10 min): 98%
mean percent hydrolysis in plasma ([2]; No inhibitor, 15 min): 99%
mean percent hydrolysis in plasma ([2]; No inhibitor, 30 min): 100%
mean percent hydrolysis in plasma ([2]; No inhibitor, 60 min): 100%
mean percent hydrolysis in plasma ([2]; No inhibitor, 120 min): 100%
mean percent hydrolysis in plasma ([2]; Paraoxon (0.1 mM), cholinesterase & carboxylesterase, 5 min): 0%
mean percent hydrolysis in plasma ([2]; Paraoxon (0.1 mM), cholinesterase & carboxylesterase, 10 min): 2%
mean percent hydrolysis in plasma ([2]; Paraoxon (0.1 mM), cholinesterase & carboxylesterase, 15 min): 2%
mean percent hydrolysis in plasma ([2]; Paraoxon (0.1 mM), cholinesterase & carboxylesterase, 30 min): 2%
mean percent hydrolysis in plasma ([2]; Paraoxon (0.1 mM), cholinesterase & carboxylesterase, 60 min): 3%
mean percent hydrolysis in plasma ([2]; Paraoxon (0.1 mM), cholinesterase & carboxylesterase, 120 min): 24%
mean percent hydrolysis in plasma ([2]; Physostigmine (0.1 mM), cholinesterase, 5 min): 43%
mean percent hydrolysis in plasma ([2]; Physostigmine (0.1 mM), cholinesterase, 10 min): 65%
mean percent hydrolysis in plasma ([2]; Physostigmine (0.1 mM), cholinesterase, 15 min): 76%
mean percent hydrolysis in plasma ([2]; Physostigmine (0.1 mM), cholinesterase, 30 min): 89%
mean percent hydrolysis in plasma ([2]; Physostigmine (0.1 mM), cholinesterase, 60 min): 100%
mean percent hydrolysis in plasma ([2]; Physostigmine (0.1 mM), cholinesterase, 120 min): 100%
IC50 (HSV Type II strain G): > 100 µM
tolerability of four-week treatment course [3]: very well tolerated
stability in gastric fluid (in words) [4]: relatively stable
cytotoxicity (in words) (skin fibroblasts): without any evidence of cytotoxicity even at 100 μM
IC50 [5]: > 100 µM
time to decomposition in liver homogenate [6]: ≤ 30 min
toxicity on daily administration ([7]; intraperitoneally or orally for up to 8 consecutive weeks, cumulative dose levels as high as 6.4 g/kg): not associated with any detectable toxicity
acute or subacute toxicity ([7]; single intraperitoneal or oral bolus dose levels as high as 500 mg/kg): very well tolerated without any detectable acute or subacute toxicity
CLm1 (metabolic clearance of compound 113 / formation clearance of Ala-d4T-MP) [8, 9]: 5.03 L/h/kg
CLm2 (metabolic clearance of compound 113 / formation clearance of d4T) [8, 9]: 5.24 L/h/kg
AUC [8, 10]: 19 µM·h
Vd [8, 10]: 0.82 L/kg
Cmax [8, 11]: 212 µM
clearance [8, 11]: 10.5 L/h/kg
half-life [8, 11]: 3.6 min
AUC [8, 11]: 17.9 µM·h
Vd [8, 11]: 0.92 L/kg

Cc1cn([C@H]2C=C[C@@H](CO)O2)c(=O)[nH]c1=O [d4T, 2′, 3′-Didehydro-3′-deoxy thymidine, reference compound]
IC50 (HSV Type II strain G): > 100 µM
IC50 [5]: > 100 µM
CLme (elimination of d4T derived from Ala-d4T-MP) ([8]; after i.v. Ala-d4T-MP, model fit, C.V. of modeling in parentheses): 88.4 (13.0%) ml/min/kg
CLme2 (elimination of d4T from the body) [8, 9]: 47.1 (74.1%) ml/min/kg
CLme2 (elimination of d4T from the body) [8, 12]: 62.0 mL/min/kg
CLme (elimination of d4T derived from Ala-d4T-MP) [8, 12]: 88.4 mL/min/kg
fraction of parent converted to the metabolite [8, 12]: 15%
fraction of parent converted to the metabolite (fm) [8, 12]: 24%
Cmax [8, 13]: 280 µM
clearance [8, 13]: 0.9 L/h/kg
half-life [8, 13]: 30.3 min
AUC [8, 13]: 204 µM·h
Vd [8, 13]: 0.658 L/kg
Cmax [8, 14]: 319 µM
clearance [8, 14]: 0.912 L/h/kg
half-life [8, 14]: 26.6 min
Vd [8, 14]: 0.582 L/kg
Cmax [8, 15]: 35.2 µM
half-life [8, 15]: 34 min
AUC [8, 15]: 31.5 µM·h
Tmax [8, 15]: 4.4 min
Cmax [8, 16]: 35.9 µM
half-life [8, 16]: 32.4 min
AUC [8, 16]: 30.3 µM·h
Tmax [8, 16]: 5 min
Cmax [8, 10]: 15.7 µM
half-life [8, 10]: 115 min
AUC [8, 10]: 48.6 µM·h
Tmax [8, 10]: 18.7 min
half-life [8, 11]: 116 min
AUC [8, 11]: 47.6 µM·h
Tmax [8, 11]: 17.4 min
AUC ([8]; female, Balb/c, mouse, plasma, iv, after i.v. 40 mg/kg d4T, mean ± S.E.M): 203 µM·h
